In US20200255828A1, “METHODS AND COMPOSITIONS FOR ALTERING FUNCTION AND STRUCTURE OF CHROMATIN LOOPS AND/OR DOMAINS” (THE BROAD INSTITUTE, INC., priority 2017, published 2020):

Key:
HCT-116 RAD21-mAC cells = test: In situ Hi-C: contact domains and genome compartmentalization (Arrowhead corner score, eigenvector, sliding correlation score); assay type: cell-based, human
From the text: Domains were annotated in both untreated and treated maps using Arrowhead (Durand et al., 2016b; Rao et al., 2014). Domains were called at 5 kb and 10 kb resolutions using default parameters and merged (retaining the 5 kb domain annotation for any pair of domains annotated in both the 5 kb and 10 kb annotations). Applicants annotated 9,845 domains in our untreated maps and 2,090 domains in our treated maps.
The most common method used for classifying Hi-C patterns is the principal component (PC) approach, which Applicants introduced in (Lieberman-Aiden et al., 2009). In this approach, each intrachromosomal contact matrix is converted to an observed/expected matrix, and the first principal component of this matrix is used to bifurcate the data into two clusters.
Applicants first calculated the first three principal components of the 25-kb resolution observed/expected matrix for each chromosome (constructed using Juicer) using scikit learn's RandomizedPCA function. Applicants chose the principal component most correlated with GC content and assigned sign such that the vector was positively correlated with the GC content vector. Applicants then calculated the correlation of the eigenvector for each chromosome between untreated and treated maps. The mean correlation was 0.968.
To identify transitions in compartment state at higher resolution, Applicants used a combination of techniques. First, Applicants calculated an edge score using an algorithm similar to Canny edge detection. For every 25 kb locus in the genome, Applicants looked at the corresponding column of the 25 kb log 2(observed/expected) matrix. For every pixel (i,j) in column j, Applicants calculated a gradient=[i,j:j+3]−[i,j−4,j−1]. Applicants then searched for stretches of at least 7 pixels in the column with a gradient x such that abs(x) was greater than 0.5. […] Finally, Applicants summed the number of pixels in a column belonging to an edge to calculate the edge score for a locus. Applicants then called local peaks in this track which could correspond to compartment state transitions since a compartment state transition at locus I will create an edge between locus i−1 and i.
As described in Section V.a.3 of Rao et al., 2014, this is akin to measures in finance that correlate returns of prices to identify similarities between stocks. To calculate this sliding derivative correlation score, Applicants calculated the gradient in the log 2(observed/expected) matrix over every boundary called in our edge score track. More specifically, for every locus i, and all boundaries j in boundary set J that were within 15 Mb of i, Applicants calculated the difference of mean ([j:j+5,i]) and mean ([j−6:j−1,i]). Applicants then calculated the Spearman correlation coefficient of these two vectors (one vector for the gradients at all boundaries j in J for the pixels upstream of i, and one vector for the pixels downstream of i). Applicants excluded the derivative signal at pixels not located at compartment state transitions as defined by the edge score to reduce noise, reasoning that pixels inside compartment intervals were unlikely to contribute meaningful rises/falls in contact probability. Similarly, Applicants only included pixels within 15 mb of i to reduce the noise arising from sparsity far off the diagonal.
Applicants then identified compartment boundaries by calling local peaks in the edge score track and local valleys in the sliding derivative correlation score track and merging the two peak call lists.
To assess the presence and strength of contact domains after auxin treatment, Applicants used the Arrowhead algorithm (Durand et al., 2016b; Rao et al., 2014). The Arrowhead algorithm calculates a corner score for every pixel, where higher corner score values represent a higher likelihood that a pixel is at the corner of a domain (see Section IV. a.3 of the Extended Experimental Procedures of Rao et al., 2014). […]

RAD21-mAC cells = test: Gene expression changes between untagged HCT-116 cells and auxin-treated RAD21-mAC cells; assay type: cell-based; conditions: auxin-treated RAD21-mAC cells compared with untagged HCT-116 cells
From the text: To our surprise, Applicants only identified 68 cell type specific loops (compared to […] each per pair of cell types in Rao et al 2014). In order to increase statistical power, Applicants identified 518 loops that had been called in one of our cell types in Rao et al 2014 (HMEC, IMR90, K562, HUVEC, HeLa, NHEK) but not in GM12878, or vice versa and had been associated with 10-fold upregulation of a gene whose promoter lay at the loop anchor. Applicants sought to then identify cases where these loop-gene pairs were present in HCT-116 to then examine the results of loop loss. However, only 15 of the 518 loops were conserved in HCT-116. […] Alternatively, it is possible that the tagging of cohesin and resulting potential loss of stability results in preferential loss of cell type specific loops. […] In fact, it may be the case that some other regulatory event catalyzes both loop formation and gene activation, or that gene activation itself enables loop formation.

## O=C(O)Cc1c[nH]c2ccccc12 [auxin, indole-3-acetic acid]
HCT-116 RAD21-mAC cells; 209 transitions, untreated 0.01 increase
  dip in sliding correlation in treated cells, H3K27me3 transitions spanned by loop domains: 0.03
HCT-116 RAD21-mAC cells; 264 transitions, untreated 0.02
  dip in sliding correlation in treated cells, H3K27Ac transitions spanned by loop domains: 0.19
HCT-116 RAD21-mAC cells; 307 transitions, untreated 0.41
  dip in sliding correlation in treated cells, H3K27Ac transitions at loop domain boundaries: 0.49
HCT-116 RAD21-mAC cells; 349 boundaries, untreated 0.10
  decrease in sliding correlation score in treated cells, compartment boundaries contained within loop domains: 0.31
HCT-116 RAD21-mAC cells; 381 transitions, untreated 0.10
  decrease in sliding correlation score in treated cells, H3K27Ac transitions at loop anchors: 0.26
HCT-116 RAD21-mAC cells; 384 transitions, untreated 0.29
  dip in sliding correlation in treated cells, H3K27me3 transitions at loop domain boundaries: 0.33
HCT-116 RAD21-mAC cells; 389 boundaries, untreated 0.35
  decrease in sliding correlation score in treated cells, compartment boundaries at loop domain anchors: 0.53
HCT-116 RAD21-mAC cells; 391 transitions, untreated 0.27
  decrease in sliding correlation score in treated cells, H3K27me3 transitions spanned by loops: 0.31
HCT-116 RAD21-mAC cells; 426 transitions, untreated 0.41
  decrease in sliding correlation score in treated cells, H3K27Ac transitions spanned by loops: 0.50
HCT-116 RAD21-mAC cells; 469 transitions, untreated 0.03
  decrease in sliding correlation score in treated cells, H3K27me3 transitions at loop anchors: 0.12
HCT-116 RAD21-mAC cells; across all chromosomes
  mean Pearson's r of Hi-C correlation map eigenvectors, untreated vs auxin treated: 0.968
RAD21-mAC cells
  genes with a greater than 5-fold change in expression: 3
